From patent US11530196B2, “Pyrimidine compound acting on EGFR and ERBB2” (CHINA RESOURCES PHARMACEUTICAL HOLDINGS COMPANY LIMITED, priority 2019, dated 2022)
Where two headings read alike, the source gives them in different places.

Key:
[1] = system: Ba/F3 (EGFR-D770_N771insSVD) subcutaneous allograft tumor; test: Ba/F3 EGFR D770_N771 ins SVD subcutaneous allograft tumor model; format: in vivo, Nude mouse (BALB/c Nude)
Method: Ba/F3 (EGFR-D770_N771insSVD) cells were artificially constructed cell lines with EGFR-D770_N771insSVD insertion mutation using mouse B cells. The CDX model established by this cell line was used to evaluate the inhibitory effect of preferred compounds on Exon 20 EGFR-D770_N771insSVD insertion mutation in animals.
Nude mouse (BALB/c Nude), Ba/F3 (EGFR-D770_N771insSVD) cell line
1. Cell culture: cells were cultured in vitro in monolayer, culture conditions were RPMI-1640 (cell culture medium) with 10% fetal bovine serum, 100 U/mL penicillin and 100 µg/mL streptomycin, the cells were cultured at a 37° C., 5% CO2 incubator. Conventional digestion with trypsin-EDTA was performed twice a week for passage. When the saturation of Ba/F3 (EGFR-D770_N771insSVD) cell was 80%-90%, and the number reached the requirement, the cells were harvested and counted. The density was 5×10^6 cells.
2. Cell inoculation: 0.2 mL (containing 5×10^6 cells) of Ba/F3 (EGFR-D770_N771insSVD) cell suspension (PBS:Matrigel=1:1) was inoculated subcutaneously on the right back of each mouse, for a total of 64 mice. On the 7th day after inoculation, when the average tumor volume reached 133 mm^3, the randomized stratified grouping method was used to start the grouping administration according to the tumor volume and animal weight. PBS was phosphate buffer and Matrigel was matrix.
3. Administration: The dose was 0-7 days: 10 mg/kg, 8-21 days: 40 mg/kg; oral administration; administration frequency: once a day×3 weeks.
Tumor diameters were measured with vernier calipers twice a week. The calculation formula of tumor volume was: V=0.5a×b^2, wherein a and b represented the long and short diameters of the tumor, respectively.
The antitumor efficacy of the compounds was evaluated by TGI (%) or relative tumor proliferation rate T/C (%).
Relative tumor proliferation rate T/C (%)=TRTV/CRTV×100% (TRTV: mean RTV in the treatment group; CRTV: mean RTV in the solvent control group).
The relative tumor volume (RTV) was calculated according to the results of tumor measurement. The calculation formula was RTV=Vt/V0, wherein V0 was the tumor volume measured at the time of group administration (i.e., D0), and Vt was the tumor volume corresponding to a certain measurement. TRTV and CRTV were taken on the same day.
TGI (%), reflecting the tumor growth inhibition rate. TGI (%)=[(1−(average tumor volume at the end of administration of a treatment group−average tumor volume at the beginning of administration of this treatment group))/(average tumor volume at the end of treatment in the solvent control group−average tumor volume at the beginning of treatment of the solvent control group)]×100%.

[2] = Pharmacokinetic study, single intravenous and oral administration in rats; format: in vivo; details: rat, plasma; for AUC(0-t): read-out: Exposure of AUC0-last
Method: The purpose of this experiment was to investigate the pharmacokinetics (PK) of the compounds in different species after single intravenous and single oral administration of the test compounds.
After intravenous or oral administration, blood samples were collected from the animals, and the actual time of blood collection was recorded. After the blood samples were collected, the samples were immediately transferred to the labelled centrifuge tube containing K2-EDTA, and then centrifuged to obtain plasma. Plasma was transferred to pre-cooled centrifuge tubes, quick-frozen in dry ice and stored in an ultra-low temperature refrigerator at −70±10° C. until LC-MS/MS analysis was performed.
The plasma drug concentration data of the compounds were processed using pharmacokinetic software with a non-compartmental model. The peak concentration (Cmax) and time to peak (Tmax), as well as the quantifiable end time were obtained directly from the plasma concentration-time curve. The following pharmacokinetic parameters were calculated using the log-linear trapezoidal method: half-life (T1/2), apparent volume of distribution (Vdss), and clearance (Cl), area under the time-plasma concentration curve from point 0 to the end time point (AUC0-last), and initial concentration (C0).

[3] = Compound stability test in plasma (human); format: in vitro ADME
Method: In this study, mouse, SD rat, Beagle, cynomolgus monkey and human plasma were used as materials to investigate the stability of the tested compounds in the plasma of the above five species. Propantheline, Enalapril, Bisacodyl and Procaine were used as control compounds.
The experimental conditions for the test compounds were as follows: • test concentration: 2 μM (DMSO ≤0.5%); • incubation times: 0, 10, 30, 60 and 120 minutes; • frozen plasma (from multiple species) was used in the test system; • incubation conditions: 37° C.
The mixed frozen plasma was thawed in a 37° C. water bath prior to the experiment. Plasma was centrifuged at 4000 rpm for 5 minutes and cleared if there was a clot. The pH will be adjusted to 7.4±0.1 if required.
The intermediate solution of 1 mM compound and positive control was prepared by diluting 10 mM stock solution with 90 μL of dimethyl sulfoxide. 100 μM solution was prepared by diluting 20 μL of intermediate solution (1 mM) with 180 μL of 45% methanol/water.
2 μL of 100 μM solution was added to 98 μL of blank plasma to achieve a final concentration of 2 μM (in duplicate) of the sample, and the sample was incubated in a 37° C. water bath. At each time point (0, 10, 30, 60 and 120 min), 400 μL of termination solution (200 ng/mL toluenesulfonylurea and 200 ng/mL labetalol, 50% ACN/MeOH) was added to precipitate the proteins and mixed thoroughly. […]

[4] = Day 14, oral once a day, 0-7 days 10 mg/kg, 8-21 days 40 mg/kg

clearance ([2]; intravenous injection 2 mg/kg): 90.5 mL/min/kg
half-life ([2]; intravenous injection 2 mg/kg): 2.62 h
AUC ([2]; intravenous injection 2 mg/kg, read-out: Exposure of AUC): 0.548 µM·h
Vd ([2]; intravenous injection 2 mg/kg, read-out: Vdss): 18 L/kg
bioavailability ([2]; oral 10 mg/kg): 21.6%
AUC(0-t) ([2]; oral 10 mg/kg): 0.593 µM·h
bioavailability ([2]; oral 20 mg/kg): 57.1%
AUC(0-t) ([2]; oral 20 mg/kg): 3.13 µM·h
bioavailability ([2]; oral 50 mg/kg): 68.6%
AUC(0-t) ([2]; oral 50 mg/kg): 9.39 µM·h
bioavailability ([2]; oral 200 mg/kg): 34.5%
AUC(0-t) ([2]; oral 200 mg/kg): 18.9 µM·h
In vitro plasma stability (Residual percentage) ([3]; 120 minutes, 2 μM, 37° C.): 19%
half-life at 2 µM ([3]; pH 7.4, 37° C., read-out: In vitro plasma half-life T1/2): 0.86 h
Compound: C=CC(=O)Nc1cc(Nc2ncc(C(=O)OC(C)C)c(-c3cn(OC)c4ccccc34)n2)c(OC)cc1N(C)CCN(C)C.CS(=O)(=O)O [Compound 1]
Tumor volume (Day 0) ([1]; Day 0 (grouping), mean ± standard error, n = 6): 133.2 ± 8.2 mm^3
RTV [1, 4]: 1.9
T/C [1, 4]: 14.9%
TGI [1, 4]: 92.1%
Tumor volume (Day 14) [1, 4]: 259.1 ± 35.2 mm^3
